This passage reports IC50 results from patent US9856279B2 (AGIOS PHARMACEUTICALS, INC, priority 2011, dated 2018).

The target in one assay is IDH1 R132H (Homo sapiens, UniProt O75874, R132H). Description: Assay for IDH1 R132H inhibitors (NADPH/aKG, resazurin detection). The class given is biochemical. As to conditions: enzyme assay of Example 12; read-out: IDH1R132H IC50. In short, it runs like this:
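Read-out is resorufin fluorescence (Ex544/Em590) 5 min after adding a 30 μM resazurin detection mix. Before that, mutant enzyme (0.2 μg/ml in its mix) ran 50 min at room temperature with compound, 8 uM NADPH and 2 mM aKG (mix levels) in Tris pH 7.5 with NaCl, MgCl2, BSA.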

For another assay, the system named is U87MG cells. Description: Cellular assay for IDH1m inhibitors: inhibition of 2-HG production (LC-MS, 48 hours) in U87MG cells. The class given is cell-based. As to conditions: Homo sapiens, U-87 MG, inhibition of 2-HG production, U87R132H cells; read-out: U87R132H IC50. In short, it runs like this:
(§1)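 5000 cells/well, DMEM + 10% FBS, overnight 37 °C/5% CO2; compound added (0.2% DMSO final), 48 h; medium sampled for LC-MS 2-HG; IC50 vs DMSO control.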

Another assay concerns HT1080 cells. Description: Cellular assay for IDH1m inhibitors: inhibition of 2-HG production (LC-MS, 48 hours) in HT1080 cells. The class given is cell-based. As to conditions: Homo sapiens, HT-1080; inhibition of 2-HG production, HT1080 cells; read-out: HT1080 IC50. The procedure, abridged: as §1

IDH1 R132H, sequence (O75874 whole entry R132H): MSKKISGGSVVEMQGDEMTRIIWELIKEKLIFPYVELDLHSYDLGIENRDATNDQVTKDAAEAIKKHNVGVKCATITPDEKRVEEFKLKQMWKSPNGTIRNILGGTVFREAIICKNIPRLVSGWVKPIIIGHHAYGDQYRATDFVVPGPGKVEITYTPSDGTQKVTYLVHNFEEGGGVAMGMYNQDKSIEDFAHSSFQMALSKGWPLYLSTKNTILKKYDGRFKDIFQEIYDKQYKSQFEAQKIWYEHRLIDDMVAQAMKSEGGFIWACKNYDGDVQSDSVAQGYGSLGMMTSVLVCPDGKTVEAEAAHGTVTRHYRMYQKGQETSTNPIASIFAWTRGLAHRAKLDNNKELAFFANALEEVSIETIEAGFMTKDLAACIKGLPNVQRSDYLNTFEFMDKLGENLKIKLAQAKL

Consider `COCCC(=O)N1CCN(c2nc(C3CC3)c(-c3ccc(NS(C)(=O)=O)cc3)c(C)c2C#N)C[C@H]1C` [Compound 380, (R)—N-(4-{5-cyano-2-cyclopropyl-6-[4-(3-methoxy-propionyl)-3-methyl-piperazin-1-yl]-4-methyl-pyridin-3-yl}-phenyl)-methane sulfonamide], for which the IC50 on IDH1 R132H is below 500 nM; in the assay with U87MG cells, 500 to 1000 nM; with HT1080 cells, 500 to 1000 nM.
Consider `C=Cc1cnnc(-c2c(C3CC3)nc(N3CCN(C(=O)CCO)[C@H](C(C)C)C3)c(C#N)c2C)c1` [Compound 784, (R)-6-cyclopropyl-2-(4-(3-hydroxypropanoyl)-3-isopropylpiperazin-1-yl)-4-methyl-5-(5-vinylpyridazin-3-yl)nicotinonitrile], for which the half-inhibitory concentration (IC50) at IDH1 R132H, in the assay with U87MG cells and with HT1080 cells was below 500 nM each time.
With `C=Cc1ccnc(Nc2cc(C#N)c(N3CCN(C(=O)CC4CCCO4)[C@H](C4CC4)C3)nc2C2CC2)c1` (stereo partly drawn) [Compound 813, 6-cyclopropyl-2-((3R)-3-cyclopropyl-4-(2-(tetrahydrofuran-2-yl)acetyl)piperazin-1-yl)-5-((4-vinylpyridin-2-yl)amino)nicotinonitrile], the IC50 at IDH1 R132H, in the assay with U87MG cells and in the assay on HT1080 cells was below 500 nM in each case.
Turning to `COCCC(=O)N1CCN(c2nc(C3CC3)c(-c3ccc4scnc4c3)cc2C#N)C[C@H]1C` [Compound 352, (R)-5-benzothiazol-5-yl-6-cyclopropyl-2-[4-(3-methoxy-propionyl)-3-methyl-piperazin-1-yl]-nicotinonitrile], the results for the IC50 on IDH1 R132H, in the assay on U87MG cells and with HT1080 cells were below 500 nM, 500 to 1000 nM and 1000 to 10000 nM, respectively.
As for `C=Cc1ncc2c(-c3cc(C#N)c(N4CCN(C(=O)C5CC5)[C@H](C5CC5)C4)nc3C3CC3)cccc2n1` [Compound 636, (R)-2-(4-(cyclopropanecarbonyl)-3-cyclopropylpiperazin-1-yl)-6-cyclopropyl-5-(2-vinylquinazolin-5-yl)nicotinonitrile], the IC50 at IDH1 R132H, in the assay with U87MG cells and with HT1080 cells was below 500 nM throughout.
For `C=Cc1cnnc(Nc2cc(C#N)c(N3CCN(C(=O)CCOC)[C@H](C4CC4)C3)nc2C2CC2)c1` [Compound 775, (R)-6-cyclopropyl-2-(3-cyclopropyl-4-(3-methoxypropanoyl)piperazin-1-yl)-5-((5-vinylpyridazin-3-yl)amino)nicotinonitrile], the IC50 on IDH1 R132H, in the assay with U87MG cells and in the assay with HT1080 cells was below 500 nM in each case.
In the case of `COCCC(=O)N1CCN(c2nc(C3CC3)c(OCc3ccncc3)cc2C#N)C[C@H]1C` [Compound 309, (R)-6-cyclopropyl-2-(4-(3-methoxypropanoyl)-3-methylpiperazin-1-yl)-5-(pyridin-4-ylmethoxy)nicotinonitrile], the IC50 was below 500 nM on IDH1 R132H, 500 to 1000 nM in the assay with U87MG cells and 500 to 1000 nM with HT1080 cells.
Take `C=Cc1cc(-c2cc(C#N)c(N3CCN(C(=O)C4CC4)[C@H](C4CC4)C3)nc2C2CC2)ccn1` [Compound 485, (R)-6-(4-(cyclopropanecarbonyl)-3-cyclopropylpiperazin-1-yl)-2-cyclopropyl-2′-vinyl-3,4′-bipyridine-5-carbonitrile]: the IC50 at IDH1 R132H, in the assay with U87MG cells and in the assay on HT1080 cells was below 500 nM each time.
Turning to `COCCC(=O)N1CCN(c2nc(C3CC3)c(-c3cccc4[nH]ncc34)cc2C#N)C[C@H]1C` [Compound 438, (R)-6-cyclopropyl-5-(1H-indazol-4-yl)-2-[4-(3-methoxy-propionyl)-3-methyl-piperazin-1-yl]-nicotinonitrile], the IC50 on IDH1 R132H is below 500 nM; in the assay with U87MG cells, 500 to 1000 nM; in the assay on HT1080 cells, 1000 to 10000 nM.
Turning to `C=Cc1cc(-c2cc(C#N)c(N3CCN(C(=O)CCC4CCCO4)[C@H](C4CC4)C3)nc2C2CC2)ccn1` (stereo partly drawn) [Compound 800, 2-cyclopropyl-6-((3R)-3-cyclopropyl-4-(3-(tetrahydrofuran-2-yl)propanoyl)piperazin-1-yl)-2′-vinyl-3,4′-bipyridine-5-carbonitrile], the IC50 on IDH1 R132H, in the assay with U87MG cells and in the assay with HT1080 cells was below 500 nM each time.
Consider `C=Cc1cc(-c2c(C3CC3)nc(N3CCN(C(=O)CC4CCC(=O)O4)[C@H](C4CC4)C3)c(C#N)c2C)ccn1` (stereo partly drawn) [Compound 806, 2-cyclopropyl-6-((3R)-3-cyclopropyl-4-(2-(5-oxotetrahydrofuran-2-yl)acetyl)piperazin-1-yl)-4-methyl-2′-vinyl-[3,4′-bipyridine]-5-carbonitrile], for which the IC50 on IDH1 R132H, with U87MG cells and in the assay on HT1080 cells was below 500 nM throughout.
For the molecule `C=Cc1ccc2c(-c3cc(C#N)c(N4CCN(C(=O)CCO)[C@H](C)C4)nc3C3CC3)cccc2n1` [Compound 633, (R)-6-cyclopropyl-2-(4-(3-hydroxypropanoyl)-3-methylpiperazin-1-yl)-5-(2-vinylquinolin-5-yl)nicotinonitrile], the IC50 on IDH1 R132H, in the assay with U87MG cells and in the assay on HT1080 cells was below 500 nM throughout.
`C=Cc1cc(-c2cc(C#N)c(N3CCN(C(=O)CC4CCO4)[C@H](C)C3)nc2C2CC2)ccn1` (stereo partly drawn) [Compound 649, 2-cyclopropyl-6-((3R)-3-methyl-4-(2-(oxetan-2-yl)acetyl)piperazin-1-yl)-2′-vinyl-[3,4′-bipyridine]-5-carbonitrile]: the IC50 at IDH1 R132H, in the assay on U87MG cells and in the assay with HT1080 cells was below 500 nM in each case.
Turning to `C=Cc1cc(-c2c(C3CC3)nc(N3CCN(C(=O)C[C@H]4CCO4)[C@H](C(C)C)C3)c(C#N)c2C)ccn1` [Compound 781, 2-cyclopropyl-6-((R)-3-isopropyl-4-(2-((R)-oxetan-2-yl)acetyl)piperazin-1-yl)-4-methyl-2′-vinyl-3,4′-bipyridine-5-carbonitrile], the IC50 at IDH1 R132H, with U87MG cells and in the assay on HT1080 cells was below 500 nM each time.
Take `CCS(=O)(=O)Nc1cccc(-c2cc(C#N)c(N3CCN(C(=O)CCOC)[C@H](C)C3)nc2C2CC2)c1` [Compound 448, (R)—N-(3-(5-cyano-2-cyclopropyl-6-(4-(3-methoxypropanoyl)-3-methylpiperazin-1-yl)pyridin-3-yl)phenyl)ethanesulfonamide]: the IC50 was below 500 nM on IDH1 R132H, 1000 to 10000 nM in the assay on U87MG cells and 1000 to 10000 nM with HT1080 cells.
Take `COC[C@@H]1C[C@@H]1C(=O)N1CCN(c2nc(C3CC3)c(-c3cccc4cnccc34)cc2C#N)C[C@H]1C1CC1` [Compound 480, 6-cyclopropyl-2-((R)-3-cyclopropyl-4-((1S,2R)-2-(methoxymethyl)cyclopropanecarbonyl)piperazin-1-yl)-5-(isoquinolin-5-yl)nicotinonitrile]: the 50% inhibitory concentration (IC50) on IDH1 R132H, in the assay on U87MG cells and in the assay with HT1080 cells was below 500 nM each time.
`C=Cc1cc(-c2cc(C#N)c(N3CCN(C(=O)CC(F)(F)F)[C@H](C4CC4)C3)nc2C2CC2)ccn1` [Compound 498, (R)-2-cyclopropyl-6-(3-cyclopropyl-4-(3,3,3-trifluoropropanoyl)piperazin-1-yl)-2′-vinyl-3,4′-bipyridine-5-carbonitrile]: the IC50 at IDH1 R132H, in the assay with U87MG cells and in the assay with HT1080 cells was below 500 nM each time.
With `COCCC(=O)N1CCN(c2nc(C3CC3)c(-c3ccsc3)c(C)c2C#N)C[C@H]1C` [Compound 270, (R)-6-cyclopropyl-2-(4-(3-methoxypropanoyl)-3-methylpiperazin-1-yl)-4-methyl-5-(thiophen-3-yl)nicotinonitrile], the IC50 at IDH1 R132H was in the range of 500 to 1000 nM; in the assay with U87MG cells it was 1000 to 10000 nM; with HT1080 cells it was 1000 to 10000 nM.
On to `C=Cc1cc(-c2cc(C#N)c(N3CCN(C(=O)CCO)[C@H](C)C3)nc2C2CC2)c2ccccc2n1` [Compound 591, (R)-6-cyclopropyl-2-(4-(3-hydroxypropanoyl)-3-methylpiperazin-1-yl)-5-(2-vinylquinolin-4-yl)nicotinonitrile], for which the IC50 at IDH1 R132H, with U87MG cells and in the assay on HT1080 cells was below 500 nM in each case.
As for `C=Cc1ccnc(Nc2cc(C#N)c(N3CCN(C(=O)CCOC)[C@H](C4CC4)C3)nc2C2CC2)c1` [Compound 706, (R)-6-cyclopropyl-2-(3-cyclopropyl-4-(3-methoxypropanoyl)piperazin-1-yl)-5-((4-vinylpyridin-2-yl)amino)nicotinonitrile], the IC50 on IDH1 R132H, in the assay on U87MG cells and with HT1080 cells was below 500 nM in each case.
For the molecule `COCCC(=O)N1CCN(c2nc(C3CC3)c(OCc3ccccn3)cc2C#N)C[C@H]1C` [Compound 279, (R)-6-cyclopropyl-2-(4-(3-methoxypropanoyl)-3-methylpiperazin-1-yl)-5-(pyridin-2-ylmethoxy)nicotinonitrile], the IC50 was 500 to 1000 nM on IDH1 R132H, 1000 to 10000 nM in the assay on U87MG cells and 1000 to 10000 nM with HT1080 cells.
Consider `COCCC(=O)N1CCN(c2nc(C3CC3)c(Nc3ccnc(C#N)c3)cc2C#N)C[C@H]1C` [Compound 660, (R)-4-(5-cyano-2-cyclopropyl-6-(4-(3-methoxypropanoyl)-3-methylpiperazin-1-yl)pyridin-3-ylamino)picolinonitrile], for which the IC50 at IDH1 R132H, with U87MG cells and with HT1080 cells was below 500 nM throughout.
